Assay results: patent US8354265B2, “Chemicals promoting the growth of N-acylhomoserine lactone-degrading bacteria” (Centre National de la Recherche Scientifique, priority 2007, dated 2013)
Entries after “also recorded” stand apart in the source; their conditions may differ.

Tests used:
[1] = system: bacterial consortia from unplanted soil; test: C6-HSL inactivation by bacterial consortia enriched from unplanted soil on the compound as sole carbon source; type: cell-based; conditions: soil and rhizospheric samples; among 25 assayed molecules
[2] = system: bacterial consortia originating from rhizospheric soil; test: C6-HSL inactivation by bacterial consortia enriched from rhizospheric soil; type: cell-based
[3] = system: bacteria recovered from the consortia; test: NAHL production and inactivation by isolates recovered from the consortia, with rrs identification; type: cell-based
bacterial consortia = test: Inactivation of C6-HSL and OC8-HSL by mannitol, 6CL, GCL and HTN consortia; type: cell-based
Source text: (§1) The Mannitol-, 6CL-, GCL-, and HTN-consortia were compared for their capacity to inactivated OC8-HSL, the major NAHL produced by the plant pathogen Erwinia carotovora subsp. atroseptica 6276, as well as for their biocontrol activity against this pathogen in potato maceration assay.

[4] = system: Erwinia carotovora subsp. atroseptica 6276; test: Maceration assay on potato tubers (biocontrol activity of consortia); type: in vivo; conditions: potato tubers infected with mix of Erwinia carotovora 6276 and consortia
Source text: FIG. 6: Maceration assay on potato tubers.
as §1

[5] = system: NAHL-degrading bacteria in the nutritive solution; test: Ratio of NAHL-degrading bacteria in unplanted batches of nutritive solution; type: cell-based; conditions: for percentage of NAHL-degrading bacteria in the nutritive solution: without plants
Protocol: (§2) The non sterile batches (40×60×8 cm) contained 13 L of the nutritive solution Hydrobloom (Cellmax, UK) with Nitrogen at 0.80 g/L, Phosphore at 0.56 g/L and Potassium at 1.48 g/L as major components. The solution was diluted from a concentrated stock solution (×250) with non sterile water from the public water system. One hundred plants of Solanum tuberosum var. Allians, which were recovered from cultures performed under sterile conditions, were placed into holes (3 cm space to each other) of batch covers. Planted batches were placed in the greenhouse (Comité Nord Plants de Pomme de Terre, Bretteville-du-Grand-Caux) under natural light at 10-15° C. (night) and 25-30° C. (day). […] An untreated batch was used as a control. One gram of roots (fresh weight) was resuspended in 10 mL of sterile MgSO4 10 mM, diluted and spread on TSA and King B plates to isolate total cultivable bacteria and fluorescent Pseudomonas, respectively. Three samples were analyzed from each batch at each time D0, D14 and D28; from each sample, thirty isolates from TSA plates and thirty fluorescent isolates from King B plates were individually tested from production and inactivation of NAHL signal.
(§3) Bacterial isolates grown in 96-microwell plates were individually tested from production of NAHL with the A. tumefaciens biosensor NT1 (pZNLR4) and the inactivation of the C6-HSL signal, as described previously (d'Angelo-Picard et al. 2004).
Allians was evaluated. The plants were cultivated in vitro under sterile conditions, then placed into batches in a greenhouse at Bretteville-du-Grand-Caux (France) in a non-sterile environment. Especially, a non-sterile nutritive solution was used and served as a source of naturally occurring bacteria. […] The ratio of NAHL-degrading bacteria in the nutritive solution was evaluated before the treatment and 14-day later. This percentage increased from 10±2 to 30±2 in the case of the 6CL-treated batch and from 10±2 to 70±2 in the GCL-treated batch. From the 6CL- and GCL-treated batches, 10 NAHL-degrading bacteria were identified by their rrs sequence: 9 belonged to the Delftia genus, the other one to the Rhodococcus genus.

[6] = system: NAHL-degrading rhizobacteria of potato rhizosphere; test: Preliminary experiment in planted hydroponic batches: level and diversity of NAHL-degrading rhizobacteria (Table 1); type: in vivo, Solanum tuberosum var. Allians
Protocol: as §2, §3
At least 400 bp were submitted to the NCBI database.

[7] = system: NAHL-degrading and NAHL-producing bacteria of potato rhizosphere; test: Two independent analyses of 6CL and GCL treatments on planted batches (FIG. 7); type: in vivo, Solanum tuberosum var. Allians
Source text: FIG. 7: Percentage of NAHL-degrading and NAHL-producing strains in potato rhizosphere. […] An untreated batch was used as a control in the two independent sets of experiments. The mean of three replicates is shown. Statistically different values (Student t test; 0.05) are noted by different letters.
as §2, §3
An untreated batch was used as a control.

[8] = system: bacterial isolates from untreated and GCL-treated batches; test: Assimilation of GCL as sole carbon source versus NAHL inactivation by isolates (FIG. 10); type: cell-based; conditions: untreated and GCL-treated (0.1 and 0.4 mL/L) batches; D14 and D28
Protocol: Each disk represents 90 isolates from untreated or GCL-treated (0.1 and 0.4 mL/L) batches 14 days (D14) and 28 days (D28) after the beginning of the treatment.
as §3
Results were cross-examined with respect to the ability of each strain to inactivate (or not) NAHL signal.

[9] = system: NAHL-degrading rhizobacteria; test: Diversity of NAHL-degrading rhizobacteria after 6CL and GCL treatments, rrs sequencing (Table 2); type: in vivo, Solanum tuberosum
Protocol: as §2
The 5′-end of the rrs gene was amplified with primers pA (5′-[…]) (SEQ ID NO:1) and 518r (5′-[…]) (SEQ ID NO:2), and sequenced with pA primer by GenomeExpress (Meylan, France). At least 400 bp were submitted to the NCBI database. Although some sequence comparisons authorized identification of isolates at the species level, only the genus level was retained in this study for homogeneity.
The isolates were identified by rrs-sequencing (Table 2). At D0, most of the NAHL-degrading isolates were identified as Delftia. However, at D14 and D28, the Agrobacterium isolates dominated in untreated batches, while they were not detected in the treated batches. In those, the more frequently counted bacteria were Delftia and Rhodococcus.

[10] = system: NAHL-degrading rhizobacteria; test: as above; type: in vivo, Solanum tuberosum; conditions: isolates of treated batches
young plants = test: Sensitivity of young plants to the chemicals; conditions: high concentrations (1 mL/L); data not shown
[11] = 6CL- and GCL-treated batches together, rrs sequence

SMILES: CCC1CCC(=O)O1 (stereo not shown) [GCL, gamma-caprolactone]
- growth stimulation of NAHL-degrading bacteria after enrichment procedures [1]: stimulated the growth of NAHL-degrading bacteria
- activity of consortia towards C6-HSL (ranking) [2]: the most active
- NAHL-inactivating bacteria recovered from consortia [3]: recovered
- NAHL-degrading isolates related to Chryseobacterium ([3]; 6CL and GCL consortia together): 10%
- NAHL-degrading isolates related to Delftia ([3]; 6CL and GCL consortia together): 80 % of the identified strains
- NAHL-degrading isolates related to Ralstonia ([3]; 6CL and GCL consortia together): 3%
- NAHL-degrading isolates related to Rhodococcus ([3]; 6CL and GCL consortia together): 7%
- NAHL-producing bacteria among isolates of the consortia ([3]; 280 isolates from 280 independent enrichments): none
- speed of C6-HSL signal inactivation versus Mannitol consortia (bacterial consortia): inactivated more rapidly
- speed of OC8-HSL signal inactivation versus Mannitol consortia (bacterial consortia): inactivated more rapidly
- biocontrol activity of the consortia against E. carotovora 6276 [4]: biocontrol activity was observed; also recorded: showed biocontrol activity
- NAHL-degrading bacteria belonging to the Delftia genus (of 10 identified) [5, 11]: 9
- NAHL-degrading bacteria belonging to the Rhodococcus genus (of 10 identified) [5, 11]: one
- percentage of NAHL-degrading bacteria in the nutritive solution ([5]; 14-day after treatment at 1 mL/L): 70±2%
- percentage of NAHL-degrading bacteria in the nutritive solution ([5]; before the treatment): 10±2%
- Log CFU/gram of root (fresh weight) ([6]; D0 (before treatment)): 8.0 ± 7.5 Log CFU/gram of root (fresh we
- NAHL degraders (%) ([6]; D0 (before treatment)): 16.7 ± 0.1 %
- NAHL producers (%) ([6]; D0 (before treatment)): 6.7 ± 1.0%
- rrs-identified NAHL-degraders: Delftia ([6]; D0, of 8 isolates): 3
- rrs-identified NAHL-degraders: Pseudomonas ([6]; D0, of 8 isolates): 2
- rrs-identified NAHL-degraders: Rhodococcus ([6]; D0, of 8 isolates): 3
- Log CFU/gram of root (fresh weight) ([6]; D28, 0.1 mL/L): 10.5 ± 9.8 Log CFU/gram of root (fresh we
- NAHL degraders (%) ([6]; D28, 0.1 mL/L): 33.3 ± 4.0 %
- NAHL producers (%) ([6]; D28, 0.1 mL/L): 11.1 ± 1.5%
- identified genera of NAHL-degrading bacteria ([6]; D28, 0.1 mL/L): 3
- rrs-identified NAHL-degraders: Bacillus ([6]; D28, 0.1 mL/L, of 8 isolates): 1
- rrs-identified NAHL-degraders: Delftia ([6]; D28, 0.1 mL/L, of 8 isolates): 2
- rrs-identified NAHL-degraders: Rhodococcus ([6]; D28, 0.1 mL/L, of 8 isolates): 5
- cell density (CFU/g of root) ([7]; 14 days after application at 0.4 mL/L, two experiments): consistently increased
- level of NAHL-degrading bacteria among fluorescent Pseudomonads ([7]; after GCL-treatments): no modification
- percentage of NAHL-degrading bacteria among total cultivable bacteria ([7]; applied to hydroponic plant cultures (FIG. 7)): significant increase
- occurrence of bacteria both assimilating GCL and inactivating NAHL [8]: only detected in the treated batches
- rrs-identified NAHL-degraders: Delftia ([9]; D14 and D28, 0.1 mL/L): 16
- rrs-identified NAHL-degraders: Others ([9]; D14 and D28, 0.1 mL/L): 2
- rrs-identified NAHL-degraders: Pseudomonas ([9]; D14 and D28, 0.1 mL/L): 1
- rrs-identified NAHL-degraders: Rhizobium ([9]; D14 and D28, 0.1 mL/L): 1
- rrs-identified NAHL-degraders: Rhodococcus ([9]; D14 and D28, 0.1 mL/L): 60
- rrs-identified NAHL-degraders: Delftia ([9]; D14 and D28, 0.4 mL/L): 9
- rrs-identified NAHL-degraders: Pseudomonas ([9]; D14 and D28, 0.4 mL/L): 1
- rrs-identified NAHL-degraders: Rhodococcus ([9]; D14 and D28, 0.4 mL/L): 96
- percentage of A. tumefaciens isolates among the NAHL-degrading rhizobacteria ([9]; after GCL-treatments): decrease
- growth of Delftia and Rhodococcus isolates on the compound as a sole carbon source [10]: grew on GCL as a sole carbon source
- sensitivity of young plants (young plants): sensitive
